Experimental data from ChEMBL document CHEMBL1201862, “PubChem BioAssay data set” (2004).
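Protocol summary: plate cells (96-well), add compound at 5 concentrations, incubate 48 h, interpolate endpoints linearly. The concentration for 50% growth inhibition is given as GI50.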 Activity calls are given as the source filed them. Rule as the data show it: active = GI50 up to about 1.1 µM and inactive = higher.

Assays:
Test in all cases: DTP human tumour cell line panel, 48 h
HOP-92 = test system: HOP-92
UACC-257 = test system: UACC-257
HT-29 = test system: HT-29
CAKI-1 = test system: CAKI-1
CCRF-CEM = test system: CCRF-CEM
COLO 205 = test system: COLO 205
SNB-75 = test system: SNB-75
SNB-19 = test system: SNB-19
IGROV-1 = test system: IGROV-1
UACC-62 = test system: UACC-62
786-0 = test system: 786-0
OVCAR-4 = test system: OVCAR-4
HCT-116 = test system: HCT-116
MCF7 = test system: MCF7
UO-31 = test system: UO-31
HCC 2998 = test system: HCC 2998
SF-539 = test system: SF-539
MOLT-4 = test system: MOLT-4
PC-3 = test system: PC-3
NCI/ADR-RES = test system: NCI/ADR-RES

Compound | GI50 (HOP-92) | GI50 (UACC-257) | GI50 (HT-29) | GI50 (CAKI-1) | GI50 (CCRF-CEM) | GI50 (COLO 205) | GI50 (SNB-75) | GI50 (SNB-19) | GI50 (IGROV-1) | GI50 (UACC-62) | GI50 (786-0) | GI50 (OVCAR-4) | GI50 (HCT-116) | GI50 (MCF7) | GI50 (UO-31) | GI50 (HCC 2998) | GI50 (SF-539) | GI50 (MOLT-4) | GI50 (PC-3) | GI50 (NCI/ADR-RES)
COC(=O)C1Cc2c([nH]c3ccccc23)C(c2cccc(O)c2)N1 (stereo not given) | 28.4 µM (inactive) | 90.8 µM (inactive) | 27.6 µM (inactive) | 57 µM (inactive) | 19 µM (inactive) | 30.5 µM (inactive) | 23.6 µM (inactive) | 42.5 µM (inactive) | 37.8 µM (inactive) | 44.2 µM (inactive) | 49.1 µM (inactive) | 41.2 µM (inactive) | 35.7 µM (inactive) | 27.3 µM (inactive) | 80 µM (inactive) | 25.6 µM (inactive) | 33.4 µM (inactive) | 31.6 µM (inactive) | 27.3 µM (inactive) | 22.9 µM (inactive)
O=C(NC1CCCCC1NC(c1ccccc1)(c1ccccc1)c1ccccc1)C(=O)NC1CCCCC1NC(c1ccccc1)(c1ccccc1)c1ccccc1 (stereo not given) | 10.5 µM (inactive) | > 100 µM (inactive) | > 100 µM (inactive) | > 100 µM (inactive) | > 100 µM (inactive) | > 100 µM (inactive) | 1.63 µM (inactive) | > 100 µM (inactive) | 69.2 µM (inactive) | > 10 µM (inactive) | 53.7 µM (inactive) | 22.6 µM (inactive) | > 100 µM (inactive) | > 100 µM (inactive) | 43.6 µM (inactive) | > 100 µM (inactive) | 51.2 µM (inactive) | > 100 µM (inactive) | > 100 µM (inactive) | 81.5 µM (inactive)
COc1cc(-c2oc3c(OC)c(O)c(OC)c(O)c3c(=O)c2OC)cc(O)c1OC | 39.4 µM (inactive) | 51.2 µM (inactive) | 30.8 µM (inactive) | 24.5 µM (inactive) | 28.9 µM (inactive) | 67.8 µM (inactive) | 11 µM (inactive) | 65.9 µM (inactive) | 12.1 µM (inactive) | 22.4 µM (inactive) | 44.4 µM (inactive) | > 100 µM (inactive) | 36.1 µM (inactive) | 29.6 µM (inactive) | 23.5 µM (inactive) | 31.3 µM (inactive) | 20.7 µM (inactive) | 42.9 µM (inactive) | 33.3 µM (inactive) | 17.6 µM (inactive)
Cc1cc(C)c2c(O)cc(-c3ccc(Cl)cc3)nc2n1 | 9.27 µM (inactive) | 24.4 µM (inactive) | 19.9 µM (inactive) | 37.4 µM (inactive) | 69.3 µM (inactive) | 24.7 µM (inactive) | 33.2 µM (inactive) | 94 µM (inactive) | 27.4 µM (inactive) | 60.4 µM (inactive) | > 46.5 µM (inactive) | 21.6 µM (inactive) | 24.2 µM (inactive) | 27.2 µM (inactive) | 41.8 µM (inactive) | 27.6 µM (inactive) | > 100 µM (inactive) | 22.5 µM (inactive) | 14.9 µM (inactive) | > 31.8 µM (inactive)
Cc1ccc(-c2c3nc(c(-c4ccc(C)cc4)c4ccc([nH]4)c(-c4ccc(OCC5COC(C)(C)O5)cc4)c4nc(c(-c5ccc(C)cc5)c5ccc2[nH]5)C=C4)C=C3)cc1 (stereo not given) | > 100 µM (inactive) | > 31.6 µM (inactive) | > 31.6 µM (inactive) | > 100 µM (inactive) | > 10 µM (inactive) | > 31.6 µM (inactive) | 10.2 µM (inactive) | > 31.6 µM (inactive) | > 31.6 µM (inactive) | > 10 µM (inactive) | > 31.6 µM (inactive) | > 31.6 µM (inactive) | > 31.6 µM (inactive) | > 31.6 µM (inactive) | > 31.6 µM (inactive) | > 31.6 µM (inactive) | > 31.6 µM (inactive) | > 31.6 µM (inactive) | > 10 µM (inactive) | > 31.6 µM (inactive)
CC(=O)NC1C(OCc2ccccc2)OC(CO)C(O)C1OC(C)C(=O)N[C@@H](C)C(=O)N[C@H](CCC(=O)NCCNCCNc1c2ccccc2nc2cccc([N+](=O)[O-])c12)C(N)=O (stereo not given in full) | 0.0244 µM (active) | 0.108 µM (active) | 0.0369 µM (active) | 0.0634 µM (active) | 0.201 µM (active) | < 0.0112 µM (active) | 0.205 µM (active) | 0.29 µM (active) | 0.0385 µM (active) | 0.0659 µM (active) | 0.0601 µM (active) | 0.0228 µM (active) | 0.0214 µM (active) | < 0.0195 µM (active) | 0.24 µM (active) | 0.0152 µM (active) | 0.0982 µM (active) | 0.0935 µM (active) | 0.0321 µM (active) | 1.73 µM (inactive)
Nc1ncnc2c1ncn2[C@@H]1O[C@H](COC(c2ccccc2)(c2ccccc2)c2ccccc2)[C@@H](OC(=S)Oc2ccccc2)[C@@H]1F | 8.43 µM (inactive) | 14.6 µM (inactive) | 6.67 µM (inactive) | 9.73 µM (inactive) | 2.5 µM (inactive) | 12.4 µM (inactive) | 14.8 µM (inactive) | 11.5 µM (inactive) | 3.23 µM (inactive) | 13.7 µM (inactive) | 4.58 µM (inactive) | 9.08 µM (inactive) | 3.81 µM (inactive) | 3.82 µM (inactive) | 4.16 µM (inactive) | 14 µM (inactive) | 8.99 µM (inactive) | 2.51 µM (inactive) | 3.88 µM (inactive) | 4.16 µM (inactive)
COc1ccc(SCc2cc(OCc3ccccc3)c(OCc3ccccc3)c(OCc3ccccc3)c2)cc1 | 1.65 µM (inactive) | 1.71 µM (inactive) | 1.52 µM (inactive) | 1.6 µM (inactive) | 1.72 µM (inactive) | 2.85 µM (inactive) | 1.58 µM (inactive) | 1.72 µM (inactive) | 1.79 µM (inactive) | 2.11 µM (inactive) | 1.55 µM (inactive) | 1.8 µM (inactive) | 1.75 µM (inactive) | 1.71 µM (inactive) | 1.76 µM (inactive) | 1.43 µM (inactive) | 1.93 µM (inactive) | 1.56 µM (inactive) | 1.92 µM (inactive) | 1.71 µM (inactive)
Cc1ccc(SCC(OCn2cnc3c(Cl)nc(N)nc32)[C@H](C)F)cc1 (stereo not given in full) | 63.7 µM (inactive) | 21.1 µM (inactive) | 82.2 µM (inactive) | > 100 µM (inactive) | 39.1 µM (inactive) | > 100 µM (inactive) | > 100 µM (inactive) | > 100 µM (inactive) | > 100 µM (inactive) | > 100 µM (inactive) | 85.1 µM (inactive) | 71.3 µM (inactive) | 50.4 µM (inactive) | 29.9 µM (inactive) | 59.3 µM (inactive) | > 100 µM (inactive) | > 100 µM (inactive) | 18.9 µM (inactive) | 60.5 µM (inactive) | 30.1 µM (inactive)
NCCC1([N+](=O)[O-])CCNCC1 | > 100 µM (inactive) | > 100 µM (inactive) | > 100 µM (inactive) | > 100 µM (inactive) | > 100 µM (inactive) | > 100 µM (inactive) | > 100 µM (inactive) | > 100 µM (inactive) | > 100 µM (inactive) | > 100 µM (inactive) | > 100 µM (inactive) | > 100 µM (inactive) | > 100 µM (inactive) | > 100 µM (inactive) | > 100 µM (inactive) | > 100 µM (inactive) | > 100 µM (inactive) | > 100 µM (inactive) | > 100 µM (inactive) | > 100 µM (inactive)
